Laboratory results as given in patent US6197752A, “Glycomimetics as selectin antagonists and pharmaceuticals having antiinflammatory activity prepared therefrom” (Glycorex AB, priority 1995, dated 2001).
Like-named read-outs stand apart in the source and are kept apart here.

Legend:
selectins = settings: cited from earlier work
P-Selectin = molecular target: T1, P-Selectin (Homo sapiens, UniProt P16109); settings: WO 95/04526, WO 94/24145, cited from earlier work
T1 sequence (P16109 42-830): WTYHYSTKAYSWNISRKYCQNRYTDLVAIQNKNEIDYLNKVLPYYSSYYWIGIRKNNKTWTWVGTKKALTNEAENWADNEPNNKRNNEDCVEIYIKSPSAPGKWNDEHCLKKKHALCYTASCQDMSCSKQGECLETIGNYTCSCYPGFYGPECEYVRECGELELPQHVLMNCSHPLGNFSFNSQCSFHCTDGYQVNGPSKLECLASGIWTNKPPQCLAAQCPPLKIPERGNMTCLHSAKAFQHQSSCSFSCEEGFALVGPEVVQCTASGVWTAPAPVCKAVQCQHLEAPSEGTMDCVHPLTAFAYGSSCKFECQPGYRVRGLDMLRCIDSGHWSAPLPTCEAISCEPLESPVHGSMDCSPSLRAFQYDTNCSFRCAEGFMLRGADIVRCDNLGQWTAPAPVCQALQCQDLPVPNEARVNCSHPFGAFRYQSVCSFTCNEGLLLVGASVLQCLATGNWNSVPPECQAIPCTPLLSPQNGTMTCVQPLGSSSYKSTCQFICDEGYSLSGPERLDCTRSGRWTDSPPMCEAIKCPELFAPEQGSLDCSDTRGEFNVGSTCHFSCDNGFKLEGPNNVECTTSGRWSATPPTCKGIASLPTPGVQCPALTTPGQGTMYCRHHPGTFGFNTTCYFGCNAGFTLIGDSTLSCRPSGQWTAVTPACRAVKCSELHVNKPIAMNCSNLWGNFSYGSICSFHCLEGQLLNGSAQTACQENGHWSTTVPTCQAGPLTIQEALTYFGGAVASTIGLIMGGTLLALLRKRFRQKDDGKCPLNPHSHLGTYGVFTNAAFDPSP

5-lipoxygenase = settings: WO 95/04526; WO 94/24145; cited from earlier work
[1] = WO 95/04526; WO 94/24145; cited from earlier work
[2] = system: leukocyte adhesion on the endothelium; test: LPS-induced leukocyte adhesion in vivo, intravital microscopy in the mesenterium of the rat; settings: SPRD (m)
Excerpt: In inflammatory processes and other states which activate the cytokines, a critical part is played by the destruction of tissue by means of leukocytes which migrate in or which block the microcirculation. The first phase, which is critical for the subsequent course of the disease, is the activation of leukocytes within the blood stream, especially in the pre- and post-capillary area. […] All subsequent leukocyte effects, i.e. active migration through the vessel wall and subsequent oriented migration in the tissue, are secondary reactions (Harlan, J. M., Leukocyte-endothelial interaction, Blood 65, 513-525,1985). […]
The induced adhesion of leukocytes is quantified by an investigation technique involving intravital microscopy in the mesenterium of the rat (Atherton A. and Born G.V.R., Quantitative investigations of the adhesiveness of circulating polymorphonuclear leukocytes to blood vessel walls. J. Physiol. 222, 447-474,1972; Seiffge, D. Methoden zur Untersuchung der Rezeptor-vermittelten Interaktion zwischen Leukozyten und Endotheizellen im Entzundungsgeschehen [Methods of investigating receptor-mediated interaction between leukocytes and endothelial cells in the case of inflammation] in: Ersatz- und Erganzungsmethoden zu Tierversuchen in der biomedizinischen Forschung, Schoffl, H. et al., (eds.) Springer, 1995 (in press)). […]

[3] = system: myocardial reperfusion injuries; settings: animal experiments; Buerke et al. 1994; cited from earlier work
[4] = system: P-selectin-dependent lung injuries; settings: animal experiments; Mulligan et al. 1993; cited from earlier work

For `CC1OC(CC(=O)C2CCCC2C(=O)NC(Cc2ccccc2)C(=O)O)C(O)C(O)C1O` (stereo not shown) [Compound 2], the IC50 (selectins; glycopeptide analogs (WO 95/04751), region of up to) is listed as ≤ 1000 µM.

In the case of `CC1OC(CCCCC2OC(CO)C(O)C(CCC(=O)O)C2O)C(O)C(O)C1O` (stereo not shown) [Compound 3], the IC50 (selectins; Wong et al., J. Am. Chem. Soc. 1995) is given as 10000 to 20000 µM.

For `C=C(CO[C@H]1CC[C@]2(C)[C@H]3C(=O)C=C4[C@@H]5C[C@@](C)(C(=O)O)CC[C@]5(C)CC[C@@]4(C)[C@]3(C)CC[C@H]2C1(C)C)C[C@@H]1O[C@@H](C)[C@@H](O)[C@@H](O)[C@@H]1O` [Compound 4a], the “P-selectin inhibition (in words)” value (P-Selectin) is given as “P-selectin inhibition”, the IC50 (P-Selectin; read-out: IC50 for binding to P-selectin) is given as 750 µM and the “inhibition of 5-lipoxygenase” value (5-lipoxygenase) is given as “inhibition of 5-lipoxygenase”. For the same molecule, the antimetastatic action [1] was “antimetastatic action”.

With `C[C@@H]1O[C@@H](CCCOC(=O)N2CCC(C(=O)O)CC2)[C@@H](O)[C@H](O)[C@@H]1O` [Compound 12c] the “inhibition of leukocyte adhesion” value ([2]; 3 mg/kg, 1 day i.v.) was 58% and the “inhibition of leukocyte adhesion” value ([2]; 20 mg/kg, 1 day p.o.) was 29%.

In the case of `CC(=O)NC1C(O)CC(OC2C(O)C(CO)OC(OC3C(CO)OC(O)C(NC(C)=O)C3OC3OC(C)C(O)C(O)C3O)C2O)(C(=O)O)OC1C(O)C(O)CO` (stereo not shown) [SLeX], the “use in myocardial reperfusion injuries” value [3] is given as “successfully used” and the “use in P-selectin-dependent lung injuries” value [4] is given as “successfully used”.
